Laboratory results published in patent US11730717B1, “Melanin-inspired antimicrobial” (The Board of Regents for the Oklahoma Agricultural and …, priority 2020, dated 2023).
“And” between values parts separate entries of the source, which are not always exact repeats. Equal entries are not always repeated. Where two headings read alike, the source gives them in different places.

How the values were obtained:
[1] = tested on: Gram-positive bacteria, including E. faecalis and clinical isolates MRSA; assay: MIC summary for Gram-positive bacteria; type: cell-based
Experimental: The minimum inhibitory concentrations (MICs) were determined by the broth microdilution method, following the guidelines of the Clinical and Laboratory Standards Institute (CLSI). Two-fold serial dilutions of EIPE-1, DBI, and Arm (starting with 1 mg/mL) were prepared in a 100 μL volume in 96-well microtiter plates. The dilution series included DMSO as a negative control. The bacterial culture […] was normalized to an OD600 of 0.2 and was then added to each well. Plates were incubated with shaking at 220 RPM at 37° C., and the MIC was determined based on the lowest concentration at which no visible growth of the bacterial isolate was observed.
In summary, a new antimicrobial, EIPE-1, was designed and synthesized, inspired by the black-brown pigment, Eumelanin. It was confirmed that the Eumelanin-inspired core DBI maintained its intrinsic antimicrobial activity, and that enhancement could be achieved with the incorporation of bactericidal moieties. […] Bactericidal effects of EIPE-1 against S. aureus were monitored and confirmed using the Live/Dead staining and fluorescent microscopy.

MRSA = assay: Kirby-Bauer disc diffusion assay; type: cell-based, Staphylococcus aureus; conditions: Staphylococcus aureus, 24-hour incubation at 37° C.
Experimental: The susceptibility of MRSA to EIPE-1 was determined by the Kirby-Bauer disc diffusion method. Using a cotton swab applicator, a lawn of the S. aureus clinical isolate was placed onto Mueller Hinton agar plates to cover the entire surface of the plate. Filter discs (size=6 mm) were added onto the bacterial lawn. EIPE-1, DBI, and DMSO (10 μL each) were then added onto the filter discs.
The efficacy of compound EIPE-1 was tested by the Kirby-Bauer disc assay. The Kirby-Bauer disc assay assesses the sensitivity of bacteria to antimicrobial agents. If the bacteria are sensitive to the antimicrobial being tested, then a zone of inhibition of bacterial growth is seen around the filter disc containing the antimicrobial. The Kirby-Bauer disc assay was used to test the antimicrobial efficacy of EIPE-1 against MRSA. EIPE-1 was reconstituted at 1 mg/mL in DMSO and serially diluted (10^−1 to 10^−5) after which 10 μL of each dilution (and DMSO as a solvent control) was added to a separate disc on an LB plate inoculated with a lawn of bacteria. The plates were incubated at 37° C. for 24 h, and the resulting radii zone sizes around each disc were then measured.

S. aureus SFL64 = assay: MIC and MBC values (Table 2); type: cell-based, Staphylococcus aureus; conditions: repeated determinations

## COC(=O)c1cc2c(C#Cc3ccc(OCCC[N+](C)(C)C)cc3)c(OC)c(OC)c(C#Cc3ccc(OCCC[N+](C)(C)C)cc3)c2n1C [EIPE-1, 3,3′-((((5,6-dimethoxy-2-(methoxycarbonyl)-1-methyl-1H-indole-4,7-diyl)bis(ethyne-2,1-diyl))bis(4,1-phenylene))bis(oxy))bis(N,N,N-trimethylpropan-1-aminium) iodide]
[1]
  MIC: 8 µg/mL to 16 µg/mL and 8.5 µM to 17 µM
MRSA; 10 μL of 0.01 mg/mL on disc
  zone of inhibition at 10 µg/mL: 1 mm
MRSA; 10 μL of 0.1 mg/mL on disc
  zone of inhibition at 100 µg/mL: 1.5 mm
MRSA; 10 μL of 1.0 mg/mL on disc
  zone of inhibition at 1000 µg/mL: 2 mm
S. aureus SFL64; S. aureus SFL64
  MIC: 1.000 µg/mL
S. aureus SFL64; Staphylococcus aureus, SFL64, S. aureus SFL64, read-out: MIC
  MIC: 0.5 µg/mL
